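Results reflect a 48-hour exposure of cells in 96-well plates to compound at five concentrations. GI50 = concentration required for 50% inhibition of growth. The concentration for full growth arrest is given as TGI.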
Key:
Assay in all cases: growth of human tumour cells (NCI), 48 h
MDA-MB-231 breast = tested on: MDA-MB-231 breast
MOLT-4 leukemia = tested on: MOLT-4 leukemia
IGROV1 ovarian = tested on: IGROV1 ovarian
SK-MEL-2 melanoma = tested on: SK-MEL-2 melanoma
786-0 renal = tested on: 786-0 renal
MDA-MB-435 = tested on: MDA-MB-435
CCRF-CEM leukemia = tested on: CCRF-CEM leukemia
PC-3 prostate = tested on: PC-3 prostate
TK-10 renal = tested on: TK-10 renal
DU-145 prostate = tested on: DU-145 prostate
SR leukemia = tested on: SR leukemia
SK-MEL-28 melanoma = tested on: SK-MEL-28 melanoma
A498 renal = tested on: A498 renal
SK-OV-3 ovarian = tested on: SK-OV-3 ovarian
UACC-257 melanoma = tested on: UACC-257 melanoma
MCF7 breast = tested on: MCF7 breast
CAKI-1 renal = tested on: CAKI-1 renal
SK-MEL-5 melanoma = tested on: SK-MEL-5 melanoma
HOP-62 NSCLC = tested on: HOP-62 NSCLC
SN12C renal = tested on: SN12C renal
RPMI-8226 leukemia = tested on: RPMI-8226 leukemia
OVCAR-5 ovarian = tested on: OVCAR-5 ovarian
T-47D breast = tested on: T-47D breast
SF-295 CNS = tested on: SF-295 CNS
HCT-15 colon = tested on: HCT-15 colon
NCI-H460 lung = tested on: NCI-H460 lung
OVCAR-8 ovarian = tested on: OVCAR-8 ovarian
A549 NSCLC = tested on: A549 NSCLC
HCC-2998 colon = tested on: HCC-2998 colon
NCI-H226 lung = tested on: NCI-H226 lung
SF-268 CNS = tested on: SF-268 CNS
UO-31 renal = tested on: UO-31 renal
SF-539 CNS = tested on: SF-539 CNS
HT29 colon = tested on: HT29 colon
OVCAR-4 ovarian = tested on: OVCAR-4 ovarian
M14 melanoma = tested on: M14 melanoma
HS 578T breast = tested on: HS 578T breast
HCT-116 colon = tested on: HCT-116 colon
RXF 393 renal = tested on: RXF 393 renal
KM12 colon = tested on: KM12 colon
HOP-92 NSCLC = tested on: HOP-92 NSCLC
HL-60(TB) leukemia = tested on: HL-60(TB) leukemia
NCI/ADR-RES ovarian = tested on: NCI/ADR-RES ovarian
COLO 205 colon = tested on: COLO 205 colon
U251 CNS = tested on: U251 CNS
MALME-3M melanoma = tested on: MALME-3M melanoma
SNB-75 CNS = tested on: SNB-75 CNS
UACC-62 melanoma = tested on: UACC-62 melanoma
SNB-19 CNS = tested on: SNB-19 CNS
NCI-H23 lung = tested on: NCI-H23 lung
OVCAR-3 ovarian = tested on: OVCAR-3 ovarian
LOX IMVI melanoma = tested on: LOX IMVI melanoma
NCI-H522 lung = tested on: NCI-H522 lung
EKVX NSCLC = tested on: EKVX NSCLC
SW-620 colon = tested on: SW-620 colon
K-562 leukemia = tested on: K-562 leukemia
BT-549 breast = tested on: BT-549 breast
ACHN renal = tested on: ACHN renal

SMILES: CN(C)c1ccc(-c2c(NC(C)(C)C)nc3c(OCCc4ccccc4)cccn23)cc1
- GI50 (MDA-MB-231 breast): 2.71 µM
- TGI (MDA-MB-231 breast): 7.87 µM
- GI50 (MOLT-4 leukemia): 3.46 µM
- TGI (MOLT-4 leukemia): 14 µM
- GI50 (IGROV1 ovarian): 4.3 µM
- TGI (IGROV1 ovarian): > 100 µM
- GI50 (SK-MEL-2 melanoma): 2.31 µM
- TGI (SK-MEL-2 melanoma): 4.99 µM
- GI50 (786-0 renal): 3.57 µM
- TGI (786-0 renal): 15.5 µM
- GI50 (MDA-MB-435): 3.16 µM
- TGI (MDA-MB-435): 18.1 µM
- GI50 (CCRF-CEM leukemia): 3.29 µM
- TGI (CCRF-CEM leukemia): > 100 µM
- GI50 (PC-3 prostate): 3.09 µM
- TGI (PC-3 prostate): > 100 µM
- GI50 (TK-10 renal): 2.34 µM
- TGI (TK-10 renal): 6.8 µM
- GI50 (DU-145 prostate): 4.16 µM
- TGI (DU-145 prostate): > 100 µM
- GI50 (SR leukemia): 3.04 µM
- TGI (SR leukemia): 18.7 µM
- GI50 (SK-MEL-28 melanoma): 3.85 µM
- TGI (SK-MEL-28 melanoma): > 100 µM
- GI50 (A498 renal): 2.52 µM
- TGI (A498 renal): 7.83 µM
- GI50 (SK-OV-3 ovarian): 3.08 µM
- TGI (SK-OV-3 ovarian): 35.8 µM
- GI50 (UACC-257 melanoma): 2.78 µM
- TGI (UACC-257 melanoma): 8.19 µM
- GI50 (MCF7 breast): 2.87 µM
- TGI (MCF7 breast): 9.82 µM
- GI50 (CAKI-1 renal): 2.95 µM
- TGI (CAKI-1 renal): 10.5 µM
- GI50 (SK-MEL-5 melanoma): 1.83 µM
- TGI (SK-MEL-5 melanoma): 3.37 µM
- GI50 (HOP-62 NSCLC): 3.4 µM
- TGI (HOP-62 NSCLC): 16.9 µM
- GI50 (SN12C renal): 2.93 µM
- TGI (SN12C renal): > 100 µM
- GI50 (RPMI-8226 leukemia): 2.53 µM
- TGI (RPMI-8226 leukemia): 6.74 µM
- GI50 (OVCAR-5 ovarian): 3.22 µM
- TGI (OVCAR-5 ovarian): > 100 µM
- GI50 (T-47D breast): 3.43 µM
- TGI (T-47D breast): > 100 µM
- GI50 (SF-295 CNS): 2.84 µM
- TGI (SF-295 CNS): 8.7 µM
- GI50 (HCT-15 colon): 3.3 µM
- TGI (HCT-15 colon): 24 µM
- GI50 (NCI-H460 lung): 2.99 µM
- TGI (NCI-H460 lung): 9.66 µM
- GI50 (OVCAR-8 ovarian): 3.04 µM
- TGI (OVCAR-8 ovarian): > 100 µM
- GI50 (A549 NSCLC): 3.58 µM
- TGI (A549 NSCLC): > 100 µM
- GI50 (HCC-2998 colon): 3.55 µM
- TGI (HCC-2998 colon): > 100 µM
- GI50 (NCI-H226 lung): 2.72 µM
- TGI (NCI-H226 lung): 8.86 µM
- GI50 (SF-268 CNS): 3.53 µM
- TGI (SF-268 CNS): > 100 µM
- GI50 (UO-31 renal): 2.01 µM
- TGI (UO-31 renal): 7.22 µM
- GI50 (SF-539 CNS): 4.16 µM
- TGI (SF-539 CNS): 19.2 µM
- GI50 (HT29 colon): 2 µM
- TGI (HT29 colon): 5.67 µM
- GI50 (OVCAR-4 ovarian): 3.06 µM
- TGI (OVCAR-4 ovarian): 12.8 µM
- GI50 (M14 melanoma): 3.48 µM
- TGI (M14 melanoma): 75.6 µM
- GI50 (HS 578T breast): 2.62 µM
- TGI (HS 578T breast): 9.02 µM
- GI50 (HCT-116 colon): 3.23 µM
- TGI (HCT-116 colon): 20.8 µM
- GI50 (RXF 393 renal): 1.94 µM
- TGI (RXF 393 renal): 5.66 µM
- GI50 (KM12 colon): 3.3 µM
- TGI (KM12 colon): 16.1 µM
- GI50 (HOP-92 NSCLC): 2.09 µM
- TGI (HOP-92 NSCLC): 6.15 µM
- GI50 (HL-60(TB) leukemia): 3.13 µM
- TGI (HL-60(TB) leukemia): 8.38 µM
- GI50 (NCI/ADR-RES ovarian): 3.09 µM
- TGI (NCI/ADR-RES ovarian): > 100 µM
- GI50 (COLO 205 colon): 2.2 µM
- TGI (COLO 205 colon): 5.24 µM
- GI50 (U251 CNS): 3.24 µM
- TGI (U251 CNS): 11.4 µM
- GI50 (MALME-3M melanoma): 2.3 µM
- TGI (MALME-3M melanoma): 5.95 µM
- GI50 (SNB-75 CNS): 1.79 µM
- TGI (SNB-75 CNS): 8.55 µM
- GI50 (UACC-62 melanoma): 3.53 µM
- TGI (UACC-62 melanoma): 52.1 µM
- GI50 (SNB-19 CNS): 3.43 µM
- TGI (SNB-19 CNS): 15.6 µM
- GI50 (NCI-H23 lung): 2.91 µM
- TGI (NCI-H23 lung): 10.9 µM
- GI50 (OVCAR-3 ovarian): 3.04 µM
- TGI (OVCAR-3 ovarian): 12.9 µM
- GI50 (LOX IMVI melanoma): 3 µM
- TGI (LOX IMVI melanoma): 20.7 µM
- GI50 (NCI-H522 lung): 2.59 µM
- TGI (NCI-H522 lung): 6.65 µM
- GI50 (EKVX NSCLC): 2.89 µM
- TGI (EKVX NSCLC): 9.64 µM
- GI50 (SW-620 colon): 2.94 µM
- TGI (SW-620 colon): 22.1 µM
- GI50 (K-562 leukemia): 3.33 µM
- TGI (K-562 leukemia): 39.3 µM
- GI50 (BT-549 breast): 2.98 µM
- TGI (BT-549 breast): 8.45 µM
- GI50 (ACHN renal): 3.24 µM
- TGI (ACHN renal): > 100 µM

Reference: PubChem BioAssay (NCI)
